The molecules below were run on Jurkat T cells (assay: Pro-apoptotic activity on Jurkat T cells (FITC-Annexin V / 7-AAD flow cytometry)). Conditions: Homo sapiens, 72 hours, cells stained with FITC-Annexin V and 7-AAD among total cells, read-out: Cell Apoptosis Effect to Jurkat T Cell (% in 5 μM).
Type: cell-based
Protocol: In order to investigate the effects of the prepared compounds, the apoptosis-inducing effects of the compounds on human T cell acute lymphoblastic leukemia cell line, Jurkat T cells, were evaluated in the following manner.
Jurkat T cells cultured in RPMI medium containing 10% fetal bovine serum (FBS) were collected and stained with trypan blue (Sigma). […] Then, the cells were centrifuged at 1200 rpm at room temperature for 5 minutes and re-suspended in 10% FBS-containing RPMI medium at a concentration of 1.5×10^5 cells/mL. 200 μL of the cell suspension was dispensed into each well of a flat bottom 96-well plate (Costar). Then, the cells were treated with 10 μL of the diluted compounds in RPMI medium at final concentrations of […] or 5 μM, and incubated in a 5% CO2 incubator at 37° C. for 72 hours. In a vehicle control group, the cells were treated with 10 μL of RPMI medium containing 1% of dimetylsulfoxide (DMSO, Sigma). The incubated cells were harvested, put into 5-mL FACS tubes (BD Falcon), washed with 1 mL of phosphate buffered saline (PBS), and then re-suspended in 0.1 mL of binding buffer (10 mM Hepes-NaOH, pH 7.4, 140 mM NaCl, […] CaCl2). The suspended cells were stained with fluorescein isothiocyanate (FITC)-Annexin V (BD Biosciences) and 7-amino-actinomycin D (7-AAD, e-Biosciences) at room temperature for 15 minutes. The stained cells were suspended in 0.3 mL of binding buffer and analyzed by a flow cytometer. Apoptosis was determined by the ratio (%) of cells stained with FITC-Annexin V and 7-AAD among the total cells (see Tables 10 and 11).

| SMILES | cytotoxicity at 5 µM [%] |
| --- | --- |
| Cc1ccnc(C)c1OCC(=O)N/N=C/c1cccc2[nH]ccc12 [Compound 190, (E)-N′-((1H-indol-4-yl)methylene)-2-(2,4-dimethylpyridin-3-yloxy)acetohydrazide] | 100 |
| Cc1ccnc(C)c1OCC(=O)N/N=C/c1ccc2cc[nH]c2c1 [Compound 191] | 100 |
| O=C(COc1ccccc1C(F)(F)F)N/N=C/c1cccc2[nH]ccc12 [Compound 192, (E)-N′-((1H-indol-4-yl)methylene)-2-(2-(trifluoromethyl)phenoxy)acetohydrazide] | 90 |
| O=C(COc1ccccc1C(F)(F)F)N/N=C/c1ccc2[nH]ccc2c1 [Compound 193] | 100 |
| O=C(COc1ccccc1C(F)(F)F)N/N=C/c1ccc2cc[nH]c2c1 [Compound 194] | 100 |
| Cc1cc(C)c(OCC(=O)N(CCO)/N=C/c2ccc3cc[nH]c3c2)c(C)c1 [Compound 195, (E)-N′-((1H-indol-6-yl)methylene)-N-(2-hydroxyethyl)-2-(mesityloxy)acetohydrazide] | 100 |
| O=C(COc1cccnc1Cl)N/N=C/c1cccc2[nH]ccc12 [Compound 196, (E)-N′-((1H-indol-4-yl)methylene)-2-(2-chloropyridin-3-yloxy)acetohydrazide] | 100 |
| Cc1cc(C)c(OCC(=O)N(CCN2CCOCC2)/N=C/c2ccc3cc[nH]c3c2)c(C)c1 [Compound 198] | 100 |
| Cc1cc(C)c(OCC(=O)N(CCN2CCCC2)/N=C/c2ccc3cc[nH]c3c2)c(C)c1 [Compound 201] | 100 |
| Cc1cc(C)c(OCC(=O)N/N=C/c2ccc3[nH]cnc3c2)c(C)c1 [Compound 205] | 100 |
| Cc1cc(C)c(OCC(=O)N/N=C/c2ccc3snnc3c2)c(C)c1 [Compound 206] | 100 |
| Cc1cc(C)c(OCC(=O)N/N=C/c2cccc3[nH]cc(CN4CCC(C)CC4)c23)c(C)c1 [Compound 211] | 100 |
| Cc1cc(C)c(OCC(=O)N/N=C/c2ccc3cc[nH]c3c2)c(-c2ccncc2)c1 [Compound 217, (E)-N′-((1H-indol-6-yl)methylene)-2-(2,4-dimethyl-6-(pyridin-4-yl)phenoxy)acetohydrazide] | 100 |
| Cc1cc(C)c(OCC(=O)N/N=C/c2ccc3cc[nH]c3c2)c(-c2ccoc2)c1 [Compound 218, (E)-N′-((1H-indol-6-yl)methylene)-2-(2-(furan-3-yl)-4,6-dimethylphenoxy)acetohydrazide] | 100 |
| Cc1cc(CO)cc(C)c1OCC(=O)N/N=C/c1cccc2[nH]ccc12 [Compound 227, (E)-N′-((1H-indol-4-yl)methylene)-2-(4-(hydroxymethyl)-2,6-dimethylphenoxy)acetohydrazide] | 90 |
| Cc1cc(CO)cc(C)c1OCC(=O)N/N=C/c1ccc2cc[nH]c2c1 [Compound 228, (E)-N′-((1H-indol-6-yl)methylene)-2-(4-(hydroxymethyl)-2,6-dimethylphenoxy)acetohydrazide] | 100 |
| Cc1cc(N)cc(C)c1OCC(=O)N/N=C/c1cccc2[nH]ccc12 [Compound 232, (E)-N′-((1H-indol-4-yl)methylene)-2-(4-amino-2,6-dimethylphenoxy)acetohydrazide] | 100 |
| Cc1cc(C)c(OCC(=O)N(CO)/N=C/c2ccc3cc[nH]c3c2)c(C)c1 [Compound 233, (E)-N′-((1H-indol-6-yl)methylene)-N-(hydroxymethyl)-2-(mesityloxy)acetohydrazide] | 100 |
| Cc1cc(C)c(OCC(=O)N(COC(=O)CN(C)C)/N=C/c2ccc3cc[nH]c3c2)c(C)c1 [Compound 236, (E)-(2-((1H-indol-6-yl)methylene)-1-(2-(mesityloxy)acetyl)hydrazinyl)methyl 2-(dimethylamino)acetate] | 100 |
| Cc1cc(C#N)cc(C)c1OCC(=O)N/N=C/c1ccc2cc[nH]c2c1 [Compound 237, (E)-N′-((1H-indol-6-yl)methylene)-2-(4-cyano-2,6-dimethylphenoxy)acetohydrazide] | 100 |
| Cc1cc(C)c(OCC(=O)N(COC(=O)CN(C)C)/N=C/c2cccc3[nH]ccc23)c(C)c1 [Compound 238, (E)-(2-((1H-indol-4-yl)methylene)-1-(2-(mesityloxy)acetyl)hydrazinyl)methyl 2-(dimethylamino)acetate] | 100 |
| Cc1cc(C(N)=O)cc(C)c1OCC(=O)N/N=C/c1ccc2cc[nH]c2c1 [Compound 239] | 100 |
| CC(=O)N(/N=C/c1ccc2cc[nH]c2c1)C(=O)COc1c(C)cc(C)cc1C [Compound 243, (E)-N′-((1H-indol-6-yl)methylene)-N-acetyl-2-(mesityloxy)acetohydrazide] | 100 |
| Cc1cc(C)c(OCC(=O)N(CO)/N=C/c2cccc3[nH]ccc23)c(C)c1 [Compound 244, (E)-N′-((1H-indol-4-yl)methylene)-N-(hydroxymethyl)-2-(mesityloxy)acetohydrazide] | 100 |
| Cc1cc(C)c(OCC(=O)N(COC(=O)c2ccc(CN3CCOCC3)cc2)/N=C/c2cccc3[nH]ccc23)c(C)c1 [Compound 245, (E)-(2-((1H-indol-4-yl)methylene)-1-(2-(mesityloxy)acetyl)hydrazinyl)methyl 4-(morpholinomethyl)benzoate] | 100 |
| CC(=O)OCN(/N=C/c1ccc2cc[nH]c2c1)C(=O)COc1c(C)cc(C)cc1C [Compound 252, (E)-(2-((1H-indol-6-yl)methylene)-1-(2-(mesityloxy)acetyl)hydrazinyl)methyl acetate] | 100 |
| Cc1cc(C)c(OCC(=O)N/N=C/c2ccc3c(Br)c[nH]c3c2)c(C)c1 [Compound 256] | 100 |
| Cc1cccc(C)c1OCC(=O)N/N=C/c1ccc2cc[nH]c2c1 [Compound 258, (E)-N′-((1H-indol-6-yl)methylene)-2-(2,6-dimethylphenoxy)acetohydrazide] | 100 |

Same assay, conditions: Homo sapiens, 72 hours, cells stained with FITC-Annexin V and 7-AAD among total cells, read-out: Jurkat T Cell Apoptosis (% in 5 μM)

| SMILES | cytotoxicity at 5 µM [%] |
| --- | --- |
| Cc1cc(C)c(OCC(=O)N/N=C/c2cccc3[nH]ccc23)c(Br)c1 [Compound 259, (E)-N′-((1H-indol-4-yl)methylene)-2-(2-bromo-4,6-dimethylphenoxy)acetohydrazide] | 100 |
| Cc1cc(C)c(OCC(=O)N/N=C/c2ccc3cc[nH]c3c2)c(Br)c1 [Compound 260, (E)-N′-((1H-indol-6-yl)methylene)-2-(2-bromo-4,6-dimethylphenoxy)acetohydrazide] | 100 |
| Cc1cc(C)c(OCC(=O)N(COC(=O)c2ccc(CN3CCOCC3)cc2)/N=C/c2ccc3cc[nH]c3c2)c(C)c1 [Compound 272, (E)-(2-((1H-indol-6-yl)methylene)-1-(2-(mesityloxy)acetyl)hydrazinyl)methyl 4-(morpholinomethyl)benzoate] | 100 |
| Cc1ccccc1OCC(=O)N/N=C/c1ccc2cc[nH]c2c1 [Compound 279] | 100 |
| Cc1cc(C)c(OCC(=O)N/N=C/c2cccc3c2ccn3S(=O)(=O)c2ccccc2)c(C)c1 [Compound 280, (E)-2-(mesityloxy)-N′-((1-(phenylsulfonyl)-1H-indol-4-yl)methylene)acetohydrazide] | 100 |
| Cc1cc(OCC(=O)N/N=C/c2cccc3[nH]ccc23)cc(C)n1 [Compound 286, (E)-N′-((1H-indol-4-yl)methylene)-2-(2,6-dimethylpyridin-4-yloxy)acetohydrazide] | 100 |
| Cc1cc(OCC(=O)N/N=C/c2ccc3cc[nH]c3c2)cc(C)n1 [Compound 288] | 90 |
| Cc1ncccc1OCC(=O)N(CO)/N=C/c1cccc2[nH]ccc12 [Compound 289] | 100 |
| Cc1cc(F)ccc1OCC(=O)N/N=C/c1ccc2cc[nH]c2c1 [Compound 291, (E)-N′-((1H-indol-6-yl)methylene)-2-(4-fluoro-2-methylphenoxy)acetohydrazide] | 100 |
| CCc1nc(C)ccc1OCC(=O)N/N=C/c1ccc2cc[nH]c2c1 [Compound 293, (E)-N′-((1H-indol-6-yl)methylene)-2-(2-ethyl-6-methylpyridin-3-yloxy)acetohydrazide] | 100 |
| Cc1cc(OCC(=O)N/N=C/c2cccc3[nH]ccc23)nc(C)n1 [Compound 301, (E)-N′-((1H-indol-4-yl)methylene)-2-(2,6-dimethylpyrimidin-4-yloxy)acetohydrazide] | 100 |
| COc1ccc(OCC(=O)N/N=C/c2cccc3[nH]ccc23)c(C(C)(C)C)c1 [Compound 302, (E)-N′-((1H-indol-4-yl)methylene)-2-(2-tert-butyl-4-methoxyphenoxy)acetohydrazide] | 100 |
| COc1ccc(OCC(=O)N/N=C/c2ccc3cc[nH]c3c2)c(C(C)(C)C)c1 [Compound 303] | 100 |
| Cc1ncccc1OCC(=O)N/N=C/c1ccc2cc[nH]c2c1 [Compound 304, (E)-N′-((1H-indol-6-yl)methylene)-2-((2-methylpyridin-3-yl)oxy)acetohydrazide] | 90 |
